One data set concerns HIV. Briefly: Protection from HIV cytopathic effects. The following applies: for Maximum protection: maximum protection from HIV cytopathic effects, water control 2%; for concentration at which maximum protection achieved, microM: value in parentheses beside maximum protection. The format is cell-based. (Cytopathic effects are the visible damage that an infection or toxin causes in cultured cells.)

The target of another data set is HIV-1 TAR RNA. The experiment in a line: HIV-1 TAR RNA competition FRET binding assay (Tat peptide probe). The following applies: 100 nM TAR RNA, 100 nM Tat peptide, 25° C., 60 min. As for the experimental part:
Before used, HIV-1 TAR RNA (5′-GGC AGA UCUGAG CCU GGG AGC UCU CUG CC-3′, Thermo Scientific) in 10 μM batch in sterile water was heated to 95° C. for 4.5 min, and then cooled rapidly in ice bath for 5 min. This snap-cooling causes the RNA to adopt the kinetically favored hairpin rather than thermodynamically favored duplexes.
The relative affinity of each polyamine for HIV-1 TAR RNA was determined using Fluorescence Resonance Energy Transfer (FRET)-based competitive binding assay with a fluorescein-labeled HIV-1 Tat peptide as described in the literature. The fluorescence experiments were performed with a Spectra Max Fluorimeter (Molecular Devices) at 25° C., with excitation and emission wavelengths of 495 and 570 nm, respectively. All samples were prepared in 96 well plates in 1×TK buffer (50 mM Tris, 20 mM KCl, pH=7.4) with 0.1% Trixton-100 (Sigma).
To a solution of 100 nM HIV-1 TAR RNA and 100 nM fluorescein-labeled HIV-1 Tat peptide, appropriate concentrations (0 nM to 100 μM) of the antagonists were added at 25° C.; total volume of the incubation solution was 80 μL. After 60 min, fluorescence changes of the sample solution were determined by the Spectra Max Fluorimeter Detector.

Data set [1] concerns TAR. The following applies: ligands to TAR, from UV melting studies.
Experimental: The bottom line represents the control which is TAR without any ligands. […] The reactions were done in the presence of 10 mM sodium cacodylate, 0.5 mM EDTA, 0.1 mM MgCl2 pH 7.0. The heating rate was 0.3° C./min.
(§2) UV melting studies of TAR were performed in the presence and absence of various ligands (FIG. 13).
Data set [2] addresses site 1 thymidylate synthetase RNA. The following applies: CC bubble of site 1 thymidylate synthetase RNA; read-out: binding constant; cited from earlier work.
Data set [3] concerns cells. Briefly: 5% Toxicity concentration (concentration at which 5% or less cell death is seen).
For data set [4], the target named is TAR. The following applies: argininamide binding site of TAR; read-out: binding constant; cited from earlier work.
The test system of data set [5] is TAR RNA. Briefly: ITC titration of TAR RNA with Neomycin. The format is binding, HIV-1. The following applies: 20° C. (ITC needs no label: the signal is the heat of the interaction.)
Data set [6] concerns TAR RNA. Briefly: UV melting of TAR RNA in presence of ligands (Tm, ΔTm). The class given is binding, HIV-1.
Experimental: The reactions were done in the presence of 10 mM sodium cacodylate, 0.5 mM EDTA, 0.1 mM MgCl2 pH 7.0. The heating rate was 0.3° C./min.
as §2
Data set [7] concerns TAR RNA. The following applies: inhibition of Tat peptide binding to the TAR RNA; cited from earlier work.
The target in data set [8] is TAR. The following applies: binds TAR; read-out: affinity; cited from earlier work.
Data set [9] concerns HIVNL4-3 in MT-2 cells. The experiment in a line: HIV antigen synthesis in treated cells, immunofluorescence assay (IFA). The format is cell-based. The following applies: for percentage of cells positive for HIV antigens, Day 2: MT-2 cells, microM: DPA119 24, DPA52 25, DPA53 9, DPA54 17, DPA55 4, DPA56 8, DPA121 25, virus control 15%; for percentage of cells positive for HIV antigens, Day 4 / percentage of cells positive for HIV antigens, Day 6: same concentrations, virus control 100%. As for the experimental part:
(§1) Anti-HIV activities can be routinely checked by measuring the percentage of cells positive for HIV antigens using immunofluorescence assay (IFA) and for the release of pelletable reverse transcriptase (RT) into the supernatant. For these assays, 500,000 MT-2 cells in 1 ml of media were added to the wells of a 24 well tissue culture plate. Next, 0.5 ml of 4× concentrated compound was added to triplicate wells of the plate. The cells and compounds were incubated for 1 hr at 37 C. Finally, 0.5 ml of HIVNL4-3, produced in H9 cells (a CD4+ lymphoblastoid cell line), 100,000 cpm of RT activity per well, was added to each well. Virus control wells contained no compounds. This inoculum is at a multiplicity of infection less than 1. On days 2, 4, and 6, 0.75 mls of supernatants were removed and placed into individual microfuge tubes for RT assay. Next, cells were resuspended in the media and 0.5 mls of the total remaining volume was removed for IFA. Cells were combined from their triplicate infections, pelleted, and the enriched cells were air-dried onto glass slides. The dried cells were fixed in acetonemethanol (50:50). After fixing, cells were stained with HIV immunoglobulin, washed in PBS, and counter-stained with FITC-conjugated goat and human IgG. Slides were washed in PBS and the percentage of HIV-positive cells was determined by epifluorescence (Robinson et al. J Acquire Immune Defic Syndr 2:33-42, 1989).

The test system of data set [10] is HIVNL4-3 in MT-2 cells. The experiment in a line: Release of reverse transcriptase into the culture supernatant. The format is cell-based, HIV. The following applies: for Release of reverse transcriptase into the culture supernatant, Day 2: mean of triplicate infections (SD), microM: DPA119 24, DPA52 25, DPA53 9, DPA54 17, DPA55 4, DPA56 8, DPA121 25, virus control 46,029; for Release of reverse transcriptase into the culture supernatant, Day 4 / Release of reverse transcriptase into the culture supernatant, Day 6: mean of triplicate infections; for Release of reverse transcriptase into the culture supernatant, Day 4: virus control 928,112; for Release of reverse transcriptase into the culture supernatant, Day 6: virus control 1,078,741.
Source text: as §1, with “The disclosed conjugates also reduce the amount of reverse transcriptase (RT) released into the cell culture supernatant upon in vitro cell culture experiments (Table 14 below). […] It is possible that even though the cells are positive for HIV, they are making much fewer unspliced transcripts, and thus the virion release into the media remains suppressed. […] Anti-HIV” for “Anti-HIV”, “On days 2, 4, and 6, 0.75 mls of supernatants were removed and placed into individual microfuge tubes for RT assay.” left out, “[…] The supernatants from each well were precipitated at 4 C overnight in a solution including 30% polyethylene glycol. After precipitation, precipitate was lysed in a solution containing Triton X100, Tris buffer, and DTT. RT activity of each aliquot was determined as incorporation of 3H-dTTP into a poly rA-oligo dT template. After a one hour assay at 37 C, the incorporated dTTP was precipitated onto a ZetaProbe (BioRad) membrane. Slots were excised and placed into liquid scintillation cocktail. After overnight incubation, counts per minute for each sample was determined on a beta counter. Results were calculated as cpm/ml of original culture supernatant (Robinson et al.” for “J Acquire Immune Defic Syndr 2:33-42, 1989).”

The target of a further data set is HIV-1 RRE RNA. Briefly: HIV-1 RRE RNA competition binding assay (fluorescence polarization, Rev peptide probe). The following applies: 100 nM RRE RNA, 10 nM Rev peptide, 25° C., 1 hour; Table 16. As for the experimental part:
Before used, HIV-1 RRE RNA (5′-GGUCUGGGCGCAGCGCAAGCUGACGGUACAGGCC-3′, Thermo Scientific) in 10 μM batch in sterile water was heated to 95° C. for 3 min, and then cooled to ambient temperature over 1 hour.
The relative affinity of each compound for HIV-1 RRE RNA was determined using fluorescence polarization-based competitive binding assay with a fluorescein-labeled HIV-1 Rev peptide. The anisotropy experiments were performed with a Spectra Max Fluorimeter (Molecular Devices) at 25° C., with excitation and emission wavelengths of 485 and 525 nm, respectively. All samples were prepared in 96 well plates in binding buffer (30 mM Hepes, 100 mM KCl, 40 mM NaCl, 10 mM NH4OAc, 10 mM Guanidinium Hydrochloride, 2 mM MgCl2, 0.5 mM EDTA, pH 7.4) with 0.01% triton-X100 (Sigma). The binding data reported for each conjugate are the averages of 3˜5 individual measurements.
A solution of 100 nM RRE RNA and 10 nM fluorescein-labeled HIV-1 Rev peptide was incubated at 25° C. After 10 min, appropriate concentrations (0 nM to 500 μM) of the antagonists were added; total volume of the incubation solution was […]. After 1 hour, the amount of the dissociated fluorescent probe was determined by the Spectra Max fluorescence plate reader. The experimental dose-response data for a given antagonist were fit to a sigmoidal dose-response nonlinear regression model on GraphPad Prism 4.0 to afford the IC50 values for each conjugates (Table 16).

The test system of data set [11] is cells.

Read-outs that look alike come from different tables or passages of the source.

Usually IC50 stands for the midpoint of a concentration-inhibition curve. What is called ΔTm is the change in melting temperature against a reference sample.

In the case of `CN1CCN(c2ccc3[nH]c(-c4ccc5[nH]c(-c6ccc(O)cc6)nc5c4)nc3c2)CC1` [Hoechst 33258], in the data set with HIV, the Maximum protection is 2% and the “concentration at which maximum protection achieved, microM” value is listed as “(2) microM”. Also, at HIV-1 TAR RNA (Table 17), the half-inhibitory concentration (IC50) came out at 6.6 ± 1.5 µM. Also, the “Binding Constant” value in the data set with TAR [1] was 420000 M⁻¹. Moreover, the Kd in data set [2] is < 0.1 µM. The “5% Toxicity microM” value in the data set on cells [3] is 18 µM.

With `N=C(N)NCCC[C@H](N)C(N)=O` [argininamide], at TAR [4], the Kd was ~0.001 µM.

As for neomycin, the K entry in the data set with TAR RNA [5] is recorded as “(6.61 ± 0.84) × 10^5”. Also, the ΔTm in the data set on TAR RNA [6] (Melting point stabilization of HIV-TAR RNA by Neo Neo dimers, Table 11) was found to be 0.2 °C. Besides, in the data set with HIV, the Maximum protection was determined as 9% and the “concentration at which maximum protection achieved, microM” value is reported as “(206) microM”. Further, on HIV-1 TAR RNA (Table 17), the IC50 is 0.713 ± 0.165 µM. In addition, the “Binding Constant” value in the data set on TAR [1] was determined as 170000 M⁻¹. Moreover, the half-inhibitory concentration (IC50) in the data set with TAR RNA [7] was 0.92 ± 0.09 µM. For the same molecule, the Kd at TAR [8] was ~6 µM.

For the molecule `CN1CCN(c2ccc3nc(-c4ccc(OCCn5cc(CCCCc6cn(C[C@H]7OC(OC8C(O)[C@H](N)CC(N)[C@H]8O[C@H]8OC(CN)[C@@H](O)C(O)C8N)C(O)C7O[C@H]7OC(CN)[C@@H](O)C(O)C7N)nn6)nn5)cc4)[nH]c3c2)CC1` (some centres unmarked) [DPA121], in the data set with HIVNL4-3 in MT-2 cells [9], the “percentage of cells positive for HIV antigens, Day 2” value is given as 15%; the “percentage of cells positive for HIV antigens, Day 4” value is recorded as 100%; the “percentage of cells positive for HIV antigens, Day 6” value is given as 100%. In the data set with HIVNL4-3 in MT-2 cells [10], the “Release of reverse transcriptase into the culture supernatant, Day 2” value is listed as 26,499 (5,566) cpm/ml; the “Release of reverse transcriptase into the culture supernatant, Day 4” value is given as 579,856 cpm/ml; the “Release of reverse transcriptase into the culture supernatant, Day 6” value is 880,573 cpm/ml. In addition, the IC50 on HIV-1 RRE RNA worked out at 30.5 ± 11.1 µM. The molecule also displayed a 50% inhibitory concentration (IC50) on HIV-1 TAR RNA (Table 17) of 0.686 ± 0.11 µM. The “5% Toxicity microM” value in the data set on cells [11] is >186 µM.

With `CN1CCN(c2ccc3nc(-c4ccc(OCCn5cc(COCc6cn(C[C@H]7OC(OC8C(O)[C@H](N)CC(N)[C@H]8O[C@H]8OC(CN)[C@@H](O)C(O)C8N)C(O)C7O[C@H]7OC(CN)[C@@H](O)C(O)C7N)nn6)nn5)cc4)[nH]c3c2)CC1` (some centres unmarked) [DPA119], in the data set on TAR RNA [6] (TAR RNA with ligand vs control, Table 10), the “ΔTm (° C.)” value worked out at 4.2 °C. Besides, the “Tm (° C.)” value with TAR RNA [6] (TAR RNA with ligand, control without ligand 69.3) came to 73.5 °C. In the data set on HIV (at 24 microM), the “protection from HIV cytopathic effects” value was determined as 16%. In the data set with HIVNL4-3 in MT-2 cells [9], the “percentage of cells positive for HIV antigens, Day 2” value was 5-7%; the “percentage of cells positive for HIV antigens, Day 4” value is 90%; the “percentage of cells positive for HIV antigens, Day 6” value worked out at 100%. In the data set on HIVNL4-3 in MT-2 cells [10], the “Release of reverse transcriptase into the culture supernatant, Day 2” value is on record as 16,576 (3,815) cpm/ml; the “Release of reverse transcriptase into the culture supernatant, Day 4” value is on record as 241,955 cpm/ml; the “Release of reverse transcriptase into the culture supernatant, Day 6” value is 399,421 cpm/ml. The molecule further gave a 50% inhibitory concentration (IC50) at HIV-1 TAR RNA (Table 17) of 0.464 ± 0.146 µM. Also, the “5% Toxicity microM” value in the data set with cells [11] amounted to 94 µM.

Turning to `[H]/N=C(/N)N[C@H]1[C@H](O)[C@@H](O)[C@H](O[C@@H]2O[C@@H](C)[C@](O)(C=O)[C@H]2O[C@@H]2O[C@@H](CO)[C@H](O)[C@@H](O)[C@@H]2NC)[C@@H](N/C(N)=N\[H])[C@@H]1O` [DPA 506, streptomycin, reference compound], the results for the IC50 at HIV-1 RRE RNA, on HIV-1 TAR RNA (Table 18) and in the data set on TAR RNA [7] were > 500 µM, 17.4 ± 4.3 µM and 9.5 ± 0.8 µM, respectively.

The values above are taken from US9492554B2, “Methods and compositions related to viral inhibition” (Clemson University Research Foundation (CURF), priority 2009, dated 2016).
